Consider two molecules from patent US11130762B2, “Azaaryl derivative, preparation method therefor, and application thereof for use in pharmacy” (Abbisko Therapeutics Co., Ltd., priority 2017, dated 2021).

This experiment relates to M-NFS-60 mouse myeloid leukemia lymphocytes. As to the kind of experiment: CSF-1R-related cell proliferation experiment (Cell Titer Glo), M-NFS-60 cells with M-CSF. The experiment is classed as cell-based. Conditions: Lymphocyte, 72 h, 3 days, CTG, * = average of multiple tests. How it is done: C. CSF-1R-Related Cell Proliferation Experiment
Functional effects of compounds on cell proliferation were evaluated by using Cell Titer Glo (CTG) study in the present invention. M-NFS-60 mouse myeloid leukemia lymphocytes (cat. No. CCBJ078) from National Institutes For Food and Drug Control were cultured in the incubator under conditions of RPMI 1640 (Gibco, cat. No. 11875-119), 10% fetal bovine serum (Gibco, 10099-141), human 10 ng/mL M-CSF macrophage colony-stimulating factor (R&D, cat. No. MVN0915101), 37° C., and 5% CO2. Since ATP is an index for viable cell metabolism, CTG (Promega, #G7573) reagent is a homogeneous detection method for detecting the number of viable cells in the culture by quantifying ATP. Therefore, compound-mediated inhibition for cell proliferation/survival was evaluated by quantifying ATP content in cells, and the specific experimental process was as follows:
1. The cells were plated into a tissue-culture-medium-treated 96-well plate (Costar #3904) with 5,000 cells/well/80 μL fresh culture medium;
2. 24 hours later, 10 μL culture medium containing testing compound with 10-fold of final concentration was added to each well;
3. 10 μL of culture medium containing M-CSF with 10-fold of the final concentration was then added to each well;
4. dosage effect was evaluated by testing the 3-fold serial dilutions of the compound;
5. after the cells were incubated for 3 days at 37° C. and 5% CO2, the inhibition on cell survival was quantified after 50 μL of CTG was added and the luminescence assay was performed;
6. the compound concentration leading to half maximal inhibitory (IC50) and the compound concentration leading to absolute half maximal inhibitory (Absolute IC50) were measured by a plate reader (M1000, Tecan) and a four-parameter curve fit in Graphpad Prism 7.

The mark [1] stands for this setting: read-out: Cytological experiment CSF1R IC50.
The mark [2] stands for this setting: absolute half maximal inhibition, read-out: Cytological experiment CSF-1R Absolute IC50.

Where two headings read alike, the source gives them in different places.

Take `Cc1nc(-c2cnc3n(c2=O)CCCN3C)ccc1Oc1ccnc(-c2cnn(C)c2)c1` [Example 1, 9-methyl-3-(6-methyl-5-((2-(1-methyl-1H-pyrazol-4-yl)pyridin-4-yl)oxy)pyridin-2-yl)-6,7,8,9-tetrahydro-4H-pyrimido[1,2-a]pyrimidin-4-one]: the IC50 under setting [1] came out at 101 nM and the IC50 under setting [2] came out at 95.6 nM.

As for `CCN1CCCn2c1ncc(-c1ccc(Oc3ccnc(-c4cnn(C)c4)c3)c(C)n1)c2=O` [Example 4], the IC50 under setting [1] turned out to be 38 nM and the IC50 under setting [2] turned out to be 20.2 nM.
